Reference: article PMC7648750, “In vitro and in vivo BNCT investigations using a carborane containing sulfonamide targeting CAIX epitopes on malignant pleural mesothelioma and breast cancer cells” (Scientific Reports, 2020)

Experiments:
[1] = system: MCF7 cells; assay: Cell uptake of boron (ICP-MS); assay type: cell-based, human; settings: MCF7, 72 µM CA-SF in culture medium, 24 h, 37 °C
Description: (§1) For the in vitro uptake experiments, 6 × 10^5 MCF7, 4.5 × 10^5 ZL34 and 2 × 10^5 AB22 were seeded in 6 cm of diameter dishes. After 24 h for MCF7 and ZL34 and after 72 h for AB22, the cells were incubated for 24 h with increasing concentration of CA-SF. All the incubations were performed in condition of normoxia at 37 °C, 5% CO2. At the end of the incubation, cells were washed three times with 3 ml ice-cold PBS and detached with 0.05% trypsin and 0.02% EDTA. Finally, all cell samples were transferred in falcon tubes and sonicated at 30% of power for 30 s in ice. The boron content of each cell sample lysates was determined by ICP-MS technique (see below). The milligrams of proteins, proportional to the number of cells, of each cell sample lysate, was evaluated by the Bradford assay (Biorad) using bovine serum albumin as a standard.
(§2) Boron content from cell samples, mice organs, plasma and tumours were determined using inductively coupled plasma mass spectrometry (ICP-MS) (Element-2; Thermo-Finnigan, Rodano (MI), Italy).
(§3) Sample digestion was performed using a high performance Microwave Digestion System (ETHOS UP Milestone, Bergamo, Italy) after the addition of concentrated HNO3 (70%) to cell lysates (1:1), in a final volume of 0.4 mL. […] The amounts of boron µg /g tissue were thus calculated considering that 1 g of tissue contains 1 × 10^9 cells.

[2] = system: ZL34 cells; assay: Cell uptake of boron (ICP-MS); assay type: cell-based, human; settings: ZL34, 187.5 µM CA-SF in culture medium, 24 h, 37 °C
Description: as §1, §2, §3

[3] = system: AB22 cells; assay: Cell uptake of boron (ICP-MS); assay type: cell-based, mouse; settings: AB22, 130 µM CA-SF in culture medium, 24 h, 37 °C
Description: as §1, §2, §3

[4] = system: MCF7 cells; assay: BNCT in vitro: viable cells 24 h after neutron irradiation (trypan blue); assay type: cell-based, human; settings: MCF7, 72 µM 24 h, thermal neutrons 15 min 30 kW, 24 h after irradiation
Description: (§4) 75 flasks of MCF7 (4 flasks), ZL34 (4 flasks) and AB22 (4 flasks) were seeded at a density of 1.8 × 10^6 cells, 1.2 × 10^6 cells and 5.5 × 10^5 cells, respectively. 24 h later for MCF7 and ZL34 and 72 h later for AB22, 2 flasks of each cell lines were incubated for 24 h in the presence of 72 µM, 187.5 µM and 130 µM of CA-SF, respectively. After the incubation, cells were washed with PBS and their medium was renewed. Two flasks of MCF7, ZL34 and AB22 cells incubated with CA-SF and two flasks containing non-treated control cells were irradiated for 15′ at 30 kW reactor power in the thermal column of the TRIGA Mark II reactor at the University of Pavia, Italy. At the end of the irradiation, the medium was removed, it was replaced with fresh medium and flasks were placed at 37 °C in a humidified atmosphere of 5% CO2.
(§5) The proliferation assay was carried out following the same procedure reported in reference 32. The day after irradiation cells were detached with 0.05% trypsin and 0.02% EDTA and the trypan blue exclusion test of cell viability was performed. Cell viability was reported as percentage of cells observed in treated a/o irradiated samples relative to that observed in control cells.

[5] = system: ZL34 cells; assay: as above; assay type: cell-based, human; settings: ZL34, 187.5 µM 24 h, thermal neutrons 15 min 30 kW, 24 h after irradiation
Description: as §4, §5

[6] = system: AB22 cells; assay: as above; assay type: cell-based, mouse; settings: AB22, 130 µM 24 h, thermal neutrons 15 min 30 kW, 24 h after irradiation
Description: as §4, §5

[7] = system: AB22 cells; assay: Proliferation assay of cells surviving irradiation; assay type: cell-based, mouse; settings: AB22, 130 µM CA-SF before neutron irradiation
Description: as §4, with “At the end of the irradiation, the medium was removed, it was replaced with fresh medium and flasks were placed at 37 °C in a humidified atmosphere of 5% CO2.” left out
Then, around 7 × 10^5 MCF7, 3.5 × 10^5 ZL34 and 1 × 10^5 AB22 cells from each differently treated flask were seeded in 10 cm diameter culture dishes. […] Then, cells were sonicated for 30 s at 30% power in ice and the total cell protein concentration (that is proportional to the number of cells) from cell lysates was determined by the Bradford method, using bovine serum albumin as a standard. The Cell Growth Rate was calculated as follows: Number of cellsti-Number of cellst0/Number of cellst0×100 for which Number of cells (ti) is the number of cells measured at the various time intervals and the number of cells (t0) is the number of cells at the starting point (t = 0) of the proliferation assay.

[8] = Solubility in aqueous media; assay type: physicochemical

1-Sulfonamidomethyl-o-carborane [CA-SF]
boron loaded into the target cells [1]: 60 µg/g
boron loaded into the target cells [2]: 90 µg/g
boron loaded into the target cells [3]: 160 µg/g
viability of CA-SF treated and irradiated cells vs CA-SF treated cells [4]: significantly reduced
viability of CA-SF treated and irradiated cells vs CA-SF treated cells [5]: comparable
viability of CA-SF treated and irradiated cells vs CA-SF treated cells [6]: significantly reduced
proliferation rate of cells surviving to irradiation [7]: marked inhibition of proliferation
solubility in aqueous media [8]: low
